Test results reported in US20160251342A1, “ALDEHYDE DERIVATIVE OF SUBSTITUTED OXAZOLIDINONES” (WANBURY LTD., priority 2012, published 2016).
“And” between values parts separate entries of the source, which are not always exact repeats. Equal values may be shown once.

Assay: Stability in buffer at various pH (LC-MS/MS)
Format: physicochemical
Details: for Analyte Peak Area (counts): 24 hr room temperature, replicates, Standard average 39849828
Protocol: On completion of incubation period, the solution is centrifuged and supernatant is taken. To the supernatant, ice cold acetonitrile containing IS is added, vortexed and injected into LCMS/MS.
API 4000, ESI Agilent 1100 column: Gemini Nx 100 mm×4.6 mm 5.μ; column temperature: 30° C.; eluent A: 0.1% formic acid in water, eluent B: acetonitrile; gradient: 0-2.5 min 95% A, 5% B; 2.5-2.6 min 5% A, 95% B; 2.6-4.2 min 95% A, 5% B; flow rate: 0.8 ml/min; ESI. Q1:464.098, Q3:144.255
Prepared 0.1 mol of citric acid and 0.2 mol of di sodium hydrogen phosphate in water. Buffer pH 2.2, 4 and 7.8 are prepared using citric acid and disodium hydrogen phosphate by adjusting the pH with 0.1N HCl or 1N NaOHpH 7.4:8.89 g disodium hydrogen phosphate (Solution A) add to 1 litre of water, 1.5601 g sodium di-hydrogen phosphate (solution B) are made up to 1 liter with water; […] are mixed.

- Analyte Peak Area (counts) (pH 2.1 buffer): 20975674 counts and 35654402 counts
- Analyte Peak Area (counts) (pH 4 buffer): 42841292 counts and 26917087 counts
- Analyte Peak Area (counts) (pH 7.8 buffer): 35312 counts and 42503 counts
- Stability in varying pH buffer conditions (varying pH buffers, rivaroxaban formation observed): degraded
SMILES: O=CN(C[C@H]1CN(c2ccc(N3CCOCC3=O)cc2)C(=O)O1)C(=O)c1ccc(Cl)s1 [compound formula (B), 5-chloro-N-formyl-N-({(5S)-2-oxo-3-[4-(3-oxomorpholin-4-yl)phenyl]-1,3-oxazolidin-5-yl}methyl)thiophene-2-carboxamide]
